Here are results for seven molecules from patent US8026218B2, “Bifunctional analgesic compounds for opioid receptor agonists and neurokinin-1 receptor antagonists” (The University of Arizona, priority 2006, dated 2011).

Molecules are shown by their SMILES. Read-outs that look alike come from different tables or passages of the source. Bridge positions count the residues as written; N and C are the ends. Square brackets hold non-standard residues; d marks the D form. Peptide text beside a SMILES is read from it. * marks the point of attachment. NH(3,5-(CF3)2-benzyl) = FC(F)(F)c1cc(CN*)cc(C(F)(F)F)c1; X1 = OC[C@H]1OC(*)[C@H](O)[C@@H](O)[C@@H]1O; Dmt = Cc1cc(O)cc(C)c1C[C@H](N)C(=O)O; dPen = CC(C)(S)[C@@H](N)C(=O)O; Nle = CCCC[C@H](N)C(=O)O

The target of series [1] is T1, human δ opioid receptors (hDOR) (Homo sapiens, UniProt P41143).
T1 construct: expressed in transfected cells; host or cells: HN9.10 neuroblastoma cell line, pCDNA3, neomycin-selected clones
Kind of series: Radioligand competition binding, [3H]DPDPE, hDOR membranes. (In general: Loss of bound radioactivity is the signal in a displacement assay; it reports binding, not function.)

The target in series [2] is T2, rat μ opioid receptors (rMOR) (Rattus norvegicus, UniProt P33535).
T2 construct: expressed in transfected cells; host or cells: HN9.10 neuroblastoma cell line, pCDNA3, neomycin-selected clones
Put plainly: Radioligand competition binding, [3H]DAMGO, rMOR membranes.

A further series concerns the target T3, rat NK1 (rNK1) receptor (Rattus norvegicus, UniProt P14600).
T3 construct: expressed in transfected cells; host or cells: CHO (rNK-1/CHO cell line from Dr. James Krause)
Put plainly: Radioligand competition binding, [3H]substance P, rNK1/CHO membranes. Particulars: for IC50: membranes from transfected CHO cells.

Series [3] addresses T4, human NK1 receptor (hNK1) (Homo sapiens, UniProt P25103).
T4 construct: expressed in transfected cells
Kind of series: Radioligand competition binding, [3H]-Substance P, hNK1.

Series [4] has as its target T1, human δ opioid receptors (hDOR). Kind of series: [35S]GTP-γ-S binding assay, hDOR. The class given is biochemical.
The target of series [5] is T2, rat μ opioid receptors (rMOR). Kind of series: biochemical. The format is biochemical.
The target in the next series is T5, δ opioid receptors (MVD) (Mus musculus, UniProt P32300).
T5 construct: from tissue; host or cells: mouse (ICR) isolated vas deferens
Kind of series: Mouse isolated vas deferens (MVD) assay, opioid agonist.

The next series concerns μ opioid receptors (GPI). Kind of series: Guinea pig isolated ileum (GPI) assay, opioid agonist.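 Also: inhibition of electrically evoked contractions (0.1 Hz, 0.4 msec, supramaximal voltage) in organ baths at 37 °C, contraction height 3 min after each cumulative dose versus the 1 min before dosing.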 On the set-up: GPI/LMMP Opioid(m) Agonist, % inh.: unit of the concentration uncertain.
For series [6], the target named is T6, Substance P receptors (guinea pig NK1) (Cavia porcellus, UniProt P30547).
T6 construct: from tissue; host or cells: guinea pig (Hartley) ileum LMMP, 1 μM naloxone present
Kind of series: Guinea pig isolated ileum (GPI) assay with substance P stimulation in presence of 1 μM naloxone. Particulars: for GPI/LMMP SP Agonist (IC50; nM): Table 39.

Series [7] is described as follows: In vitro stability in rat plasma at 37° C. The format is in vitro ADME. To be noted: for half-life at 50 μg/mL: rat, rat plasma, FIG. 47, read-out: T1/2 in rat plasma; for stability in the rat plasma: words. As for the experimental part:
The derivative compounds were tested for their metabolite stability. The compounds were incubated in rat plasma at 37° C., and aliquots were withdrawn at various time points and analyzed by HPLC to determine the concentration of remaining compound derivatives (FIGS. 15-16, 36, and 47-48).
In Vitro Stability of compound derivatives in Rat Plasm (Yamamoto, 2007, J. Am. Chem. Soc. submitted). Stock solution of compounds (50 mg/mL in DMSO) were diluted 1000-fold into rat plasma (Lot 24927, Pel-Freez Biologicals, Rogers, Ak.) to result in an incubation concentration of 50 μg/mL. All samples were incubated at 37° C. for 6 h, and 200 μL of aliquots were withdrawn at 1 h, 2 h, 4 h and 6 h. […] The samples were run in triplicate. Discussion.

The mark [8] stands for this setting: membranes from transfected HN9.10 cells.
[9] abbreviates: Table 39, read-out: GTP binding rMOR EC50.
The mark [10] stands for this setting: Table 39, read-out: GTP binding rMOR Emax.
Setting [11] is: Affinity rNK1 (Ki; nM), Table 23.

T5 sequence (P32300 whole entry): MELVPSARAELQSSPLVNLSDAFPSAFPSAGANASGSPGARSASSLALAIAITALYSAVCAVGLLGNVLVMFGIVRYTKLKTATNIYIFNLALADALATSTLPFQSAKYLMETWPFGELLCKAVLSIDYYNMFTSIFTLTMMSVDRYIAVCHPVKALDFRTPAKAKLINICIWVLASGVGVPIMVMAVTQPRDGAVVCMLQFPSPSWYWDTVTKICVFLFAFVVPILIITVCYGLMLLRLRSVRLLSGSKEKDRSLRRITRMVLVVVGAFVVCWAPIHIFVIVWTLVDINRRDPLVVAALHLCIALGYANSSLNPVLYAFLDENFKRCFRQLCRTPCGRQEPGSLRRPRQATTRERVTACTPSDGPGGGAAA
T1 sequence (P41143 whole entry): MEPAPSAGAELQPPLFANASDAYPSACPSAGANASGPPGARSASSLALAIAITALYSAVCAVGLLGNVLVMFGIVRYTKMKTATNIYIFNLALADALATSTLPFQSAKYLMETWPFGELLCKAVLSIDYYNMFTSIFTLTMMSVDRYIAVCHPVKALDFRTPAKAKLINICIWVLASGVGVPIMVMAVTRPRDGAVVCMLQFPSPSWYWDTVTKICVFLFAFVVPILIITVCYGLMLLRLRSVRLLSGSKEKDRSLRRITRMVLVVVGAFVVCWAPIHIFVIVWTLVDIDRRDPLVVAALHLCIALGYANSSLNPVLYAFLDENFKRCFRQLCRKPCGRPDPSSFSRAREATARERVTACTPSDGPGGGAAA
T3 sequence (P14600 whole entry): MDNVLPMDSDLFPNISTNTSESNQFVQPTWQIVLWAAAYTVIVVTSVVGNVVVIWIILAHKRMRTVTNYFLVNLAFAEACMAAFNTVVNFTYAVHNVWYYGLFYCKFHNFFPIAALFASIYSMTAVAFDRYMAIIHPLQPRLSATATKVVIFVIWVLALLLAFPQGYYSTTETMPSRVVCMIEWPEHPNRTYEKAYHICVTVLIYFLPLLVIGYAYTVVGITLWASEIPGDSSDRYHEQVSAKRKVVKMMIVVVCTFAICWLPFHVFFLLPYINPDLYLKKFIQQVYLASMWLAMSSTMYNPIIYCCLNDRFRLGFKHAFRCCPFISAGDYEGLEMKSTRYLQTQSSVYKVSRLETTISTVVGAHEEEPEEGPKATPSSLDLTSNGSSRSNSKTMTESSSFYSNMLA
T2 sequence (P33535 whole entry): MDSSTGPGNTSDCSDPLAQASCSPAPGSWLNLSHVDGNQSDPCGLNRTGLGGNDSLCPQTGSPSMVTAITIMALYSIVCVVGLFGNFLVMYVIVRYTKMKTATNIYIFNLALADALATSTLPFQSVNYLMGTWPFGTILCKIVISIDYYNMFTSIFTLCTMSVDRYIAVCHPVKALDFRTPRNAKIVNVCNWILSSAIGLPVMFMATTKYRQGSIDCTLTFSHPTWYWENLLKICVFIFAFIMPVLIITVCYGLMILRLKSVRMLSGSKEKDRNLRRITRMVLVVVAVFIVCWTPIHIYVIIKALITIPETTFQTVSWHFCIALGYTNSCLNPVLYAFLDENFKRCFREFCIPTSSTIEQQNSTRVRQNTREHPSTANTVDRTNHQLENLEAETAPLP
T6 sequence (P30547 whole entry): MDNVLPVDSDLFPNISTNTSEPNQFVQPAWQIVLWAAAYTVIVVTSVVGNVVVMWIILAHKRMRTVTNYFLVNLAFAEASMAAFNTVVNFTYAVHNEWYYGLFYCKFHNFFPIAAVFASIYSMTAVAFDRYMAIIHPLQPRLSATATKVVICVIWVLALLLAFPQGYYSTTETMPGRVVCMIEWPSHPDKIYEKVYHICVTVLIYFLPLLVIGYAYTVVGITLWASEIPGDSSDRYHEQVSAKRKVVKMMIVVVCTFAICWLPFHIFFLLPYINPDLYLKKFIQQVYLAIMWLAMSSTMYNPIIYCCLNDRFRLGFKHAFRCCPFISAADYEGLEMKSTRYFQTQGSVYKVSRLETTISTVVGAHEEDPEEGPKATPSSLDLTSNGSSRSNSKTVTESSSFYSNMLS
T4 sequence (P25103 whole entry): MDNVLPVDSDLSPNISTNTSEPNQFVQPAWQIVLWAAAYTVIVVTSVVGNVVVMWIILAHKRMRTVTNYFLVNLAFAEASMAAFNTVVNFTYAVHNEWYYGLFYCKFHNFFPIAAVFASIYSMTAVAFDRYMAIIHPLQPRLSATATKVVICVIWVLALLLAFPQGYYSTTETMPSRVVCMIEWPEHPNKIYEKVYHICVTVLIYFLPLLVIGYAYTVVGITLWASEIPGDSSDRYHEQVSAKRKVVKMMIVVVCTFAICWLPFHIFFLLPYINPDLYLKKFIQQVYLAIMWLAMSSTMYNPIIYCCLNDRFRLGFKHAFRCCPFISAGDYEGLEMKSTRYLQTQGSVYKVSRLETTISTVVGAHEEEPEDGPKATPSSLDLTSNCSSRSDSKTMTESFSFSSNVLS

Turning to `CC(C)C[C@H](NC(=O)[C@@H]1CCCN1C(=O)[C@@H](Cc1ccccc1)NC(=O)[C@H](Cc1ccccc1)NC(=O)CNC(=O)[C@@H](C)NC(=O)[C@@H](N)Cc1ccc(O)cc1)C(=O)N[C@@H](Cc1c[nH]c2ccccc12)C(=O)OCc1cc(C(F)(F)F)cc(C(F)(F)F)c1` [TY007, H-Tyr-D-Ala-Gly-Phe-D-Phe-Pro-Leu-Trp-O-3,5-Bzl(CF3)2], the Ki stood at 110 nM in series [1]; 93 nM in [1] (read-out: Ki, hDOR, [3H]DPDPE); 410 nM in series [2]; 381 nM in [2] (read-out: Ki, rMOR, [3H]DAMGO); 1.3 nM in [3]. The “Ki(μ)/Ki(δ)” value in [1] (binding, rMOR vs hDOR) was determined as 4.1; in series [4], 20.5. Further, the “LogIC50, hDOR, [3H]DPDPE” value in [1] (setting [8]) is reported as −6.70 ± 0.13. The “LogIC50, rMOR, [3H]DAMGO” value in series [2] (setting [8]) is given as −6.09 ± 0.15. Also, the IC50 on rat NK1 (rNK1) receptor (IC50, rNK1, Substance P radioligand) is 66.7 nM; at rat NK1 (rNK1) receptor (LogIC50, rNK1, Substance P radioligand), 60.3 nM; at δ opioid receptors (MVD) (Table 28, read-out: MVD Opioid (d) Agonist (IC50; nM)) it was 412 nM; at δ opioid receptors (MVD) (Table 39, read-out: MVD opioid(delta) agonist (IC50; nM)), 412 nM; at δ opioid receptors (MVD) (electrically stimulated isolated tissue, read-out: MVD (δ), IC50), 412 ± 106 nM. Also, the “LogEC50, hDOR, [35S]GTP-γ-S binding” value in series [4] is recorded as −7.78 ± 0.36. Also, the Emax is 26% in [4] (read-out: Emax, hDOR, [35S]GTP-γ-S binding); 22.9% in series [4] (read-out: GTP binding hDOR Emax); 22.9% in series [4] (read-out: GTP binding hDOR Emax (%)); 23.6% in series [5] (Table 27, read-out: GTP binding rMOR Emax (%)); 23.6% in [5] (setting [10]); 22% in series [5] (net total bound/basal binding × 100, read-out: Emax, rMOR, [35S]GTP-γ-S binding). Besides, the EC50 amounted to 16.7 nM in [4] (read-out: GTP binding hDOR EC50); 345 nM in [5] (Table 27, read-out: GTP binding rMOR EC50); 345 nM in [5] (setting [9]); 345 nM in [5] (read-out: EC50, rMOR, [35S]GTP-γ-S binding). For the same molecule, the “LogEC50, rMOR, [35S]GTP-γ-S binding” value in series [5] is reported as −6.46 ± 0.38. In addition, the “GPI/LMMP Opioid(m) Agonist, % inh.” value in the series with μ opioid receptors (GPI) (Table 28, at 1 (unit uncertain)) is 9% inh. at 1 mM. Also, the “GPI/LMMP opioid(mu) agonist, %” value in the series with μ opioid receptors (GPI) (Table 39, concentration not given) is 9.20%. In the series with μ opioid receptors (GPI) (at 1 μM), the “GPI (μ), effect at single concentration” value is listed as 9% at 1 μM^b. For the same molecule, in [6] (Substance P antagonist, GPI, Ke, in the presence of 1 μM naloxone), the Kb is 69.6 ± 7.1 nM. Also, the “GPI/LMMP SP Agonist (IC50; nM)” value in [6] (concentration not given) was “none”. Besides, the activation at 1 µM in series [6] (read-out: Substance P GPI agonist (A50), at 1 μM, contraction relative to initial muscle contraction with KCl) worked out at 0%.

For the molecule `CSCC[C@H](NC(=O)[C@H](Cc1ccccc1)NC(=O)CNC(=O)[C@@H](C)NC(=O)[C@@H](N)Cc1c(C)cc(O)cc1C)C(=O)N1CCC[C@H]1C(=O)N[C@@H](CC(C)C)C(=O)N[C@@H](Cc1c[nH]c2ccccc12)C(=O)OCc1cc(C(F)(F)F)cc(C(F)(F)F)c1` [TY033], the inhibition constant Ki in series [1] was determined as 0.22 nM; in [2] it was 1.2 nM; at rat NK1 (rNK1) receptor (Affinity rNK1 (Ki; nM), Table 29), 0.96 nM; in series [3] it was 1.2 nM. The Emax in [4] (Table 39, read-out: GTP binding hDOR Emax) worked out at 200%; in series [5] (setting [10]), 59%. Further, the IC50 at δ opioid receptors (MVD) was found to be 1.27 nM; in the series with μ opioid receptors (GPI) (Table 30, read-out: GPI/LMMP Opioid(m) Agonist (IC50; nM)), 100 nM; in the series with μ opioid receptors (GPI) (Table 39, read-out: GPI/LMMP opioid(mu) agonist (IC50; nM)), 100 nM. For the same molecule, the Kb in [6] (GPI/LMMP Substance P Antagonist (Ke; nM), Table 30) was 24.5 nM.

Turning to `CCCC[C@@H]1NC(=O)[C@H](Cc2ccccc2)NC(=O)CNC(=O)[C@H](NC(=O)[C@@H](N)Cc2ccc(O)cc2)C(C)(C)SSC(C)(C)[C@@H](C(=O)N[C@@H](Cc2c[nH]c3ccccc23)C(=O)NCc2cc(C(F)(F)F)cc(C(F)(F)F)c2)NC(=O)[C@@H]2CCCN2C1=O` [TY047] (HELM PEPTIDE1{Y.[CC(C)(S[*:3])[C@@H](N[*:1])C(=O)[*:2]].G.F.[Nle].P.[Pen].W.[FC(F)(F)c1cc(CN[*:1])cc(C(F)(F)F)c1]}$PEPTIDE1,PEPTIDE1,2:R3-7:R3$$$V2.0; N-terminus assumed), the Ki was determined as 152 nM in [1], 1970 nM in series [2] and 163 nM at rat NK1 (rNK1) receptor (setting [11]). In addition, the EC50 in series [5] (setting [9]) was determined as 2910 nM. The half-life at 50 μg/mL in series [7] was greater than 24 h.

On to `CCCC[C@@H]1NC(=O)[C@H](Cc2ccccc2)NC(=O)CNC(=O)[C@H](NC(=O)[C@@H](N)Cc2ccc(O)cc2)C(C)(C)SSC(C)(C)[C@H](C(=O)N[C@@H](Cc2c[nH]c3ccccc23)C(=O)NCc2cc(C(F)(F)F)cc(C(F)(F)F)c2)NC(=O)[C@@H]2CCCN2C1=O` [TY048] (H-Y[dPen]GF[Nle]P[dPen]W-{NH(3,5-(CF3)2-benzyl)}; disulfide 2-7; N-terminus assumed), for which the Ki at rat NK1 (rNK1) receptor (Table 23, read-out: Affinity rNK1 (Ki; nM)) is 26 nM. In addition, the Emax in [5] (setting [10]) is 29%. Moreover, the half-life at 50 μg/mL in [7] is greater than 24 h.

Regarding `CC(C)C[C@H](NC(=O)[C@@H]1CCCN1C(=O)[C@@H]1NC(=O)[C@H](Cc2ccccc2)NC(=O)CNC(=O)[C@H](NC(=O)[C@@H](N)Cc2ccc(O)cc2)C(C)(C)SSC1(C)C)C(=O)N[C@@H](Cc1c[nH]c2ccccc12)C(=O)NCc1cc(C(F)(F)F)cc(C(F)(F)F)c1` [TY049], the results for the Ki (at rat NK1 (rNK1) receptor (setting [11]); in series [3]) were 4.54 nM and 0.18 nM, respectively. For the same molecule, the Emax in [5] (read-out: GTP binding rMOR Emax) stood at 25%. The half-life at 50 μg/mL in series [7] was greater than 24 h.

On to `CCCC[C@H](NC(=O)[C@H](Cc1ccccc1)NC(=O)CNC(=O)[C@@H](C)NC(=O)[C@@H](N)Cc1ccc(O)cc1)C(=O)N1CCC[C@H]1C(=O)N[C@@H](CC(C)C)C(=O)N[C@@H](COC1O[C@H](CO)[C@@H](O)[C@H](O)[C@H]1O)C(=O)N[C@@H](Cc1c[nH]c2ccccc12)C(=O)NCc1cc(C(F)(F)F)cc(C(F)(F)F)c1` (some centres unmarked) [TY055], for which the inhibitory constant (Ki) in [2] was found to be 30 nM; in series [3], 0.052 nM. Moreover, the IC50 at δ opioid receptors (MVD) was determined as 17.4 nM. Also, in series [6] (at 30 nM), the “GPI/LMMP SP Agonist (IC50; nM)” value is listed as “none”. In addition, in series [7], the “stability in the rat plasma” value was “stable”.

In the case of `CCCC[C@H](NC(=O)[C@H](Cc1ccccc1)NC(=O)CNC(=O)[C@@H](C)NC(=O)[C@@H](N)Cc1c(C)cc(O)cc1C)C(=O)N1CCC[C@H]1C(=O)N[C@@H](COC1O[C@H](CO)[C@@H](O)[C@H](O)[C@H]1O)C(=O)N[C@@H](Cc1c[nH]c2ccccc12)C(=O)NCc1cc(C(F)(F)F)cc(C(F)(F)F)c1` (some centres unmarked) [TY056] (H-[Dmt][dA]GF[Nle]PS(X1)W-{NH(3,5-(CF3)2-benzyl)}; N-terminus assumed), the Ki in [2] is 1.9 nM; at rat NK1 (rNK1) receptor (Affinity rNK1 (Ki; nM), Table 25) it was 10 nM; in series [3], 0.0017 nM. Besides, in series [5] (Table 25, read-out: GTP binding rMOR EC50), the concentration for a half-maximal effect (EC50) was determined as 44.9 nM. For the same molecule, the Emax in series [5] (Table 25, read-out: GTP binding rMOR Emax (%)) stood at 66%; in [5] (setting [10]) it was 66%. The molecule also showed an IC50 on δ opioid receptors (MVD) of 3.62 nM. Besides, the “GPI/LMMP SP Agonist (IC50; nM)” value in series [6] (at 30 nM) is given as “none”. The “stability in the rat plasma” value in series [7] is listed as “stable”.

Usually Ki stands for the dissociation constant of the complex between target and ligand, obtained from inhibition or displacement. A word on the Emax: it is the size of the effect at its maximum, as opposed to the concentration needed. As a reminder, the EC50 is the midpoint of the concentration-response curve. As a reminder, the Kb is the affinity of an antagonist, worked out from how it opposes an agonist.
